From PubChem BioAssay AID1259408 (Genetic Toxicology Data Bank (GENE-TOX), 2018)
Active and inactive are the calls of the source. The rule behind the calls is not given here.

Test system: GENE-TOX genotoxicity assays, various organisms and cells
Experiment: GENE-TOX mutagenicity studies
[1] = Species/Cell Type: Chinese hamster ovary (CHO) cells, Assay Type: Forward gene mutation at the HPRT locus, Assay Code: CHO+, Evaluation Type: Evaluation B (Post-1980)
[2] = Species/Cell Type: Human, Assay Type: Sister-chromatid exchange (SCE) in vitro, Assay Code: SC1+D, Dose Response: With dose response, Evaluation Type: Evaluation B (Post-1980)
[3] = Species/Cell Type: Nonhuman, Assay Type: Sister-chromatid exchange (SCE) in vitro, Assay Code: SC2+, Evaluation Type: Evaluation B (Post-1980)
[4] = Species/Cell Type: Nonhuman, Assay Type: Sister-chromatid exchange (SCE) in vitro, Assay Code: SC2+D, Dose Response: With dose response, Evaluation Type: Evaluation B (Post-1980)
[5] = Species/Cell Type: Salmonella typhimurium (one or more of the five standard strains: TA98, TA100, TA1535, TA1537, and TA1538), Assay Type: Histidine reverse gene mutation, Ames assay, Assay Code: SAL+, Evaluation Type: Evaluation A (Pre-1980)
[6] = Species/Cell Type: Syrian hamster embryo (SHE) cells, Assay Type: Cell transformation, clonal assay, Assay Code: CTC+, Evaluation Type: Evaluation A (Pre-1980)
[7] = Species/Cell Type: Saccharomyces cerevisiae, Assay Type: Mitotic recombination or gene conversion, Assay Code: YEC+, Evaluation Type: Evaluation A (Pre-1980)
[8] = Species/Cell Type: Drosophila melanogaster, Assay Type: Sex-linked recessive lethal gene mutation, Assay Code: SRLT, Evaluation Type: Evaluation A (Pre-1980)
[9] = Species/Cell Type: Human, Assay Type: Sister-chromatid exchange (SCE) in vitro, Assay Code: SC1+D*, Activation: With metabolic activation, Dose Response: With dose response, Evaluation Type: Evaluation B (Post-1980)
[10] = Species/Cell Type: Salmonella typhimurium (one or more of the five standard strains: TA98, TA100, TA1535, TA1537, and TA1538), Assay Type: Histidine reverse gene mutation, Ames assay, Assay Code: SALT, Evaluation Type: Evaluation A (Pre-1980)
[11] = Species/Cell Type: Nonhuman, Assay Type: Sister-chromatid exchange (SCE) in vivo, Assay Code: SC3+, Evaluation Type: Evaluation B (Post-1980)
[12] = Species/Cell Type: Bacillus subtilis (H17 vs M45), Assay Type: Rec-assay, spot test, DNA effects (bacterial DNA repair), Assay Code: REWT, Evaluation Type: Evaluation A (Pre-1980)
[13] = Species/Cell Type: Escherichia coli polA (W3119 vs P3478), Assay Type: Rec-assay, DNA effects (bacterial DNA repair), Assay Code: RE1T, Evaluation Type: Evaluation A (Pre-1980)
[14] = Species/Cell Type: Nonhuman, Assay Type: Sister-chromatid exchange (SCE) in vitro, Assay Code: SC2+D*, Activation: With metabolic activation, Dose Response: With dose response, Evaluation Type: Evaluation B (Post-1980)
[15] = Species/Cell Type: Salmonella typhimurium (one or more of the five standard strains: TA98, TA100, TA1535, TA1537, and TA1538), Assay Type: Histidine reverse gene mutation, Ames assay, Assay Code: SAL-, Evaluation Type: Evaluation A (Pre-1980)

## [O]=[Cr](=[O])([OH])[O][Cr](=[O])(=[O])[OH]
Species/Cell Type: Bacillus subtilis (H17 vs M45), Assay Type: Rec-assay, spot test, DNA effects (bacterial DNA repair), Assay Code: REW+, Evaluation Type: Evaluation A (Pre-1980)
  mutagenic call: active; positive
[1]
  mutagenic call: active; positive
Species/Cell Type: Human lymphocytes, Assay Type: Sister-chromatid exchange (SCE) in vitro, Assay Code: SCL+D, Dose Response: With dose response, Evaluation Type: Evaluation B (Post-1980)
  mutagenic call: active; positive
[2]
  mutagenic call: active; positive
Species/Cell Type: Mammalian polychromatic erythrocytes, Assay Type: Micronucleus test, chromosome aberrations, Assay Code: MNT+, Evaluation Type: Evaluation B (Post-1980)
  mutagenic call: active; positive
Species/Cell Type: Nonhuman, Assay Type: Chromosome aberrations in vitro, Assay Code: CY&+, Evaluation Type: Evaluation A (Pre-1980)
  mutagenic call: active; positive
[3]
  mutagenic call: active; positive
[4]
  mutagenic call: active; positive
[5]
  mutagenic call: active; positive
[6]
  mutagenic call: active; positive

## O=NN(CCCl)C(=O)NCCNC(=O)N(CCCl)N=O
Species/Cell Type: Drosophila melanogaster, Assay Type: Sex-linked recessive lethal gene mutation, Assay Code: SRL+, Evaluation Type: Evaluation A (Pre-1980)
  mutagenic call: active; positive
[7]
  mutagenic call: active; positive

## O=C(CNC(=O)c1ccccc1)NO
[5]
  mutagenic call: active; positive

## CO[C@@H]1[C@H](C)O[C@@H](O[C@@H]2C[C@H](Oc3cc(O)c4c(O)c5c(cc4c3)C[C@@H]([C@H](OC)C(=O)[C@@H](O)[C@@H](C)O)[C@H](O[C@@H]3C[C@H](OC4C[C@H](O)[C@@H](O)[C@H](C)O4)[C@@H](O)[C@H](C)O3)C5=O)O[C@H](C)[C@@H]2O)C[C@@H]1O (stereo partly specified)
[1]
  mutagenic call: active; positive

## [Cl][Ni][Cl]
Species/Cell Type: Bacillus subtilis (H17 vs M45), Assay Type: Rec-assay, spot test, DNA effects (bacterial DNA repair), Assay Code: REW-, Evaluation Type: Evaluation A (Pre-1980)
  mutagenic call: inactive; negative
Species/Cell Type: Escherichia coli WP2, Assay Type: Tryptophan reverse gene mutation, Assay Code: WP2-, Evaluation Type: Evaluation A (Pre-1980)
  mutagenic call: inactive; negative
Species/Cell Type: Human lymphocytes, Assay Type: Sister-chromatid exchange (SCE) in vitro, Assay Code: SCL+, Evaluation Type: Evaluation B (Post-1980)
  mutagenic call: active; positive
Species/Cell Type: Human, Assay Type: Sister-chromatid exchange (SCE) in vitro, Assay Code: SC1+, Evaluation Type: Evaluation B (Post-1980)
  mutagenic call: active; positive
[3]
  mutagenic call: active; positive
Species/Cell Type: Salmonella typhimurium, Serratia marcesens, Assay Type: Forward and reverse gene mutation, host-mediated assay, Assay Code: HM2T, Evaluation Type: Evaluation A (Pre-1980)
  mutagenic call: no conclusion

## ON=C1CCCCC1
[8]
  mutagenic call: no conclusion

## Nc1ccc2c(n1)[nH]c1ccccc12
[9]
  mutagenic call: active; positive

## CCOc1ccccc1[N+](=O)[O-]
[5]
  mutagenic call: active; positive

## CCOP(=O)(OCC)Oc1cc(C)nc(C(C)C)n1
[4]
  mutagenic call: active; positive

## O[C@@H]1c2cccc3ccc4cc5ccccc5c(c4c23)[C@H]1O
Species/Cell Type: Chinese hamster lung (V79) cells, Assay Type: Forward gene mutation at the HPRT or ouabain locus, Assay Code: V79+, Evaluation Type: Evaluation A (Pre-1980)
  mutagenic call: active; positive
[10]
  mutagenic call: no conclusion

## O=C1OC2(c3cc(Br)c(O)cc3Oc3c2cc(Br)c(O)[c]3[Hg])c2ccccc21 (stereo unspecified)
Species/Cell Type: Saccharomyces cerevisiae, Assay Type: Aneuploidy, chromosome aberrations, Assay Code: YEN+, Evaluation Type: Evaluation A (Pre-1980)
  mutagenic call: active; positive
[7]
  mutagenic call: active; positive

## O=c1[nH]cccc1[N+](=O)[O-]
[5]
  mutagenic call: active; positive

## CC(=O)O[C@]1(C(C)=O)CC[C@H]2[C@@H]3C[C@H](C)C4=CC(=O)CC[C@]4(C)[C@H]3CC[C@@]21C
[2]
  mutagenic call: active; positive
Species/Cell Type: Human, Sex: Male, Assay Type: Sperm morphology, Assay Code: SPH+, Evaluation Type: Evaluation A (Pre-1980)
  mutagenic call: active; positive
[11]
  mutagenic call: active; positive

## c1ccc(N=NNc2ccccc2)cc1
Species/Cell Type: Allium cepa, Assay Type: Chromosome aberrations, Assay Code: ALC+, Evaluation Type: Evaluation A (Pre-1980)
  mutagenic call: active; positive

## COP(=S)(OC)Oc1ccc(SC)c(C)c1
[12]
  mutagenic call: no conclusion
[8]
  mutagenic call: no conclusion
Species/Cell Type: Escherichia coli WP2 UVRA, Assay Type: Tryptophan reverse gene mutation, Assay Code: WPU-*, Activation: With metabolic activation, Evaluation Type: Evaluation A (Pre-1980)
  mutagenic call: inactive; negative
[13]
  mutagenic call: no conclusion
Species/Cell Type: Human diploid fibroblasts, Assay Type: Unscheduled DNA synthesis (UDS) in vitro, DNA effects, Assay Code: UDH-, Evaluation Type: Evaluation A (Pre-1980)
  mutagenic call: inactive; negative
Species/Cell Type: Human, Assay Type: Sister-chromatid exchange (SCE) in vitro, Assay Code: SC1T, Evaluation Type: Evaluation B (Post-1980)
  mutagenic call: no conclusion
[14]
  mutagenic call: active; positive
Species/Cell Type: Saccharomyces cerevisiae, Assay Type: Mitotic recombination or gene conversion, Assay Code: YEH-, Evaluation Type: Evaluation A (Pre-1980)
  mutagenic call: inactive; negative

## COc1cc(NC(=O)c2ccccc2)c(OC)cc1[N+]#N
[12]
  mutagenic call: no conclusion

## O=C(O)c1c(Br)c(Br)c(Br)c(Br)c1C(=O)O
[15]
  mutagenic call: inactive; negative

## Nc1ccc(-c2ccc(N)cc2)cc1
Species/Cell Type: Drosophila melanogaster, Assay Type: Sex-linked recessive lethal gene mutation, Assay Code: SRL-, Evaluation Type: Evaluation A (Pre-1980)
  mutagenic call: inactive; negative
[13]
  mutagenic call: no conclusion
Species/Cell Type: Fischer rat embryo (RLV/1706) cells, Assay Type: Cell transformation, viral enhanced, Assay Code: CTR+, Evaluation Type: Evaluation A (Pre-1980)
  mutagenic call: active; positive
Species/Cell Type: Human diploid fibroblasts, Assay Type: Unscheduled DNA synthesis (UDS) in vitro, DNA effects, Assay Code: UDHT, Evaluation Type: Evaluation A (Pre-1980)
  mutagenic call: no conclusion
[9]
  mutagenic call: active; positive
Species/Cell Type: Mammalian polychromatic erythrocytes, Assay Type: Micronucleus test, chromosome aberrations, Assay Code: MNT+, Evaluation Type: Evaluation A (Pre-1980)
  mutagenic call: active; positive
Species/Cell Type: Mouse embryo (AKR/ME) cells, Assay Type: Cell transformation, Assay Code: CTK+, Evaluation Type: Evaluation A (Pre-1980)
  mutagenic call: active; positive
Species/Cell Type: Mouse, Sex: Male, Assay Type: Sperm morphology, Assay Code: SPI-, Evaluation Type: Evaluation A (Pre-1980)
  mutagenic call: inactive; negative
Species/Cell Type: Nonhuman, Assay Type: In vivo carcinogenicity studies, Assay Code: CCG+, Evaluation Type: Evaluation A (Pre-1980)
  call: active; positive
[14]
  mutagenic call: active; positive
[11]
  mutagenic call: active; positive
Species/Cell Type: Rat primary hepatocytes, Assay Type: Unscheduled DNA synthesis (UDS) in vitro, DNA effects, Assay Code: UDP+, Evaluation Type: Evaluation A (Pre-1980)
  mutagenic call: active; positive
Species/Cell Type: Salmonella typhimurium (one or more of the five standard strains: TA98, TA100, TA1535, TA1537, and TA1538), Assay Type: Histidine reverse gene mutation, Ames assay, Assay Code: SAL+*, Activation: With metabolic activation, Evaluation Type: Evaluation A (Pre-1980)
  mutagenic call: active; positive
Species/Cell Type: Syrian hamster embryo (SA7/SHE) cells, Assay Type: Cell transformation, viral enhanced, Assay Code: CT7+, Evaluation Type: Evaluation A (Pre-1980)
  mutagenic call: active; positive
[6]
  mutagenic call: active; positive
Species/Cell Type: Tradescantia species, Assay Type: Gene mutation, Assay Code: TRM+D, Dose Response: With dose response, Evaluation Type: Evaluation A (Pre-1980)
  mutagenic call: active; positive

## CC(=O)O
Species/Cell Type: Human lymphocytes, Assay Type: Sister-chromatid exchange (SCE) in vitro, Assay Code: SCL-, Evaluation Type: Evaluation A (Pre-1980)
  mutagenic call: inactive; negative
Species/Cell Type: Human, Assay Type: Sister-chromatid exchange (SCE) in vitro, Assay Code: SC1-, Evaluation Type: Evaluation A (Pre-1980)
  mutagenic call: inactive; negative
[15]
  mutagenic call: inactive; negative
Species/Cell Type: Syrian hamster embryo (SA7/SHE) cells, Assay Type: Cell transformation, viral enhanced, Assay Code: CT7-, Evaluation Type: Evaluation A (Pre-1980)
  mutagenic call: inactive; negative

## OC(O)C(F)(F)F
[10]
  mutagenic call: no conclusion

## CC[n+]1c(-c2ccccc2)c2cc(N=[N+]=[N-])ccc2c2ccc(N)cc21
[10]
  mutagenic call: no conclusion

## CC(C)(C)Br
Species/Cell Type: Escherichia coli polA (W3119 vs P3478), Assay Type: Rec-assay, DNA effects (bacterial DNA repair), Assay Code: RE1-, Evaluation Type: Evaluation A (Pre-1980)
  mutagenic call: inactive; negative
